As usually defined, the AUC(0-inf) is total exposure, with the tail of the curve extrapolated. Low readings indicate less exposure, high ones more exposure. As a reminder, the AUC(0-t) is the area under the concentration-time curve up to a stated or last time point. What is called Cmax is the maximum level reached in the sampled fluid or tissue. The term half-life denotes the time needed for the level to fall by half in the phase considered.

Structures can show the parent of a compound that is named as a salt. Where two headings read alike, the source gives them in different places.

Consider two molecules from patent publication US12005142B2, “Sustained-release compositions comprising a therapeutic agent for treating depression or anxiety and uses thereof” (TAIWAN LIPOSOME CO., LTD., priority 2018, dated 2024).

A short description of data set [1]: PK study of liposomal ketamine formulation and free ketamine after single subcutaneous injection. Here is the method: Blood samples were collected at 15 min, 0.5, 1, 2, 4, 6, 8, 24 and 48 hours post-injection.
For data set [2] the following is noted: cited from earlier work.
The conditions of data set [3]: three infusions per week; eight of nine subjects; cited from earlier work.
The conditions of data set [4]: oral administration; cited from earlier work.
The conditions of data set [5]: free ketamine IV infusion 10 mg/kg/min over 5 min (50.0 mg/kg), Wistar rats; cited from earlier work.
The conditions of data set [6]: free ketamine, intraperitoneal injection in rat; cited from earlier work.
For data set [7] the following is noted: cited from earlier work. This is another data set of the same source.
The conditions of data set [8]: intravenous; of the eight patients enrolled; cited from earlier work.
The conditions of data set [9]: 3 intravenous infusions, 3-5 days interval; cited from earlier work.
Where [10] appears, read: female, Sprague-Dawley, rat, plasma, sc, 5 mg/kg.
Setting [11] is: free ketamine SC 5.0 mg/kg, rat plasma.

On to `CNC1(c2ccccc2Cl)CCCCC1=O` (stereo not drawn) [Free Ketamine, ketamine hydrochloride], for which, in data set [1] (setting [10]), the AUC(0-inf) came out at 314 ng·h/mL, the AUC(0-t) came out at 305 ng·h/mL, the peak concentration (Cmax) turned out to be 190 ng/mL and the half-life is 46.2 min. Further, in data set [1] (setting [11]), the AUC0-inf/dose worked out at 62.9, the AUC0-t/dose is recorded as 61.0 and the Cmax/dose worked out at 38.0. Further, the “time post injection at which ketamine was undetectable in plasma” value in [1] (free ketamine SC, FIG. 1) came out at 4 h. In data set [2] (for a week after a single intravenous infusion), the “patients in whom the therapeutic response was maintained” value was 35%. The “patients with >50% decrease in Hamilton Depression Rating Scale (HDRS) score” value in data set [2] (one day after a single intravenous infusion, 17 patients) is reported as 71%. Further, the “time to relapse after the final intravenous infusion” value in data set [3] is at most 19 days. Moreover, the “patients showing improvement of mood symptoms” value in data set [4] was “approximately 30%”. For the same molecule, in [5], the “t1/2” value was 37.8 min. Also, the half-life in [6] was 78 min. Moreover, the oral bioavailability in data set [7] is 17%.

As to `CN1[C@@H]2C[C@@H](OC(=O)[C@H](CO)c3ccccc3)C[C@H]1[C@@H]1O[C@@H]12` [Free Scopolamine, scopolamine hydrobromide trihydrate], in data set [8], the “patients remitted to the nondepressed range (MADRS score 10)” value is recorded as 3 and the “patients with a 50% or greater reduction in MADRS scores” value was “five”. Also, in data set [9], the “persistence of clinical improvement following the final infusion” value is “more than 2 weeks”.
